Experimental data taken from patent US20240174679A1, “HETEROAROYL AMIDES AS LRRK2 INHIBITORS, PHARMACEUTICAL COMPOSITIONS, AND USES THEREOF” (MERCK SHARP & DOHME LLC, priority 2021, published 2024).

Molecular target: GST tagged truncated human mutant G2019S LRRK2 (Homo sapiens (Human), UniProt Q5S007, G2019S)
Assay: LRRK2 Km ATP LanthaScreen Assay
Format: biochemical
Settings: 134 μM ATP (Km ATP), LRRKtide substrate, negative log of mean IC50 (molar)
Procedure, shortened: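 Truncated GST-tagged G2019S LRRK2 (1.25 nM enzyme solution) was preincubated with compound for 15 min at rt, then reacted for 90 min with fluorescein-LRRKtide and 134 μM ATP (Km) in Tris pH 8.5/MgCl2 buffer. After an EDTA stop, TR-FRET used a Tb anti-pERM antibody (520/495 nm ratio). IC50 came from a 4-parameter fit and is reported as pIC50, mean of several runs.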

GST tagged truncated human mutant G2019S LRRK2, sequence (Q5S007 970-2527 G2019S): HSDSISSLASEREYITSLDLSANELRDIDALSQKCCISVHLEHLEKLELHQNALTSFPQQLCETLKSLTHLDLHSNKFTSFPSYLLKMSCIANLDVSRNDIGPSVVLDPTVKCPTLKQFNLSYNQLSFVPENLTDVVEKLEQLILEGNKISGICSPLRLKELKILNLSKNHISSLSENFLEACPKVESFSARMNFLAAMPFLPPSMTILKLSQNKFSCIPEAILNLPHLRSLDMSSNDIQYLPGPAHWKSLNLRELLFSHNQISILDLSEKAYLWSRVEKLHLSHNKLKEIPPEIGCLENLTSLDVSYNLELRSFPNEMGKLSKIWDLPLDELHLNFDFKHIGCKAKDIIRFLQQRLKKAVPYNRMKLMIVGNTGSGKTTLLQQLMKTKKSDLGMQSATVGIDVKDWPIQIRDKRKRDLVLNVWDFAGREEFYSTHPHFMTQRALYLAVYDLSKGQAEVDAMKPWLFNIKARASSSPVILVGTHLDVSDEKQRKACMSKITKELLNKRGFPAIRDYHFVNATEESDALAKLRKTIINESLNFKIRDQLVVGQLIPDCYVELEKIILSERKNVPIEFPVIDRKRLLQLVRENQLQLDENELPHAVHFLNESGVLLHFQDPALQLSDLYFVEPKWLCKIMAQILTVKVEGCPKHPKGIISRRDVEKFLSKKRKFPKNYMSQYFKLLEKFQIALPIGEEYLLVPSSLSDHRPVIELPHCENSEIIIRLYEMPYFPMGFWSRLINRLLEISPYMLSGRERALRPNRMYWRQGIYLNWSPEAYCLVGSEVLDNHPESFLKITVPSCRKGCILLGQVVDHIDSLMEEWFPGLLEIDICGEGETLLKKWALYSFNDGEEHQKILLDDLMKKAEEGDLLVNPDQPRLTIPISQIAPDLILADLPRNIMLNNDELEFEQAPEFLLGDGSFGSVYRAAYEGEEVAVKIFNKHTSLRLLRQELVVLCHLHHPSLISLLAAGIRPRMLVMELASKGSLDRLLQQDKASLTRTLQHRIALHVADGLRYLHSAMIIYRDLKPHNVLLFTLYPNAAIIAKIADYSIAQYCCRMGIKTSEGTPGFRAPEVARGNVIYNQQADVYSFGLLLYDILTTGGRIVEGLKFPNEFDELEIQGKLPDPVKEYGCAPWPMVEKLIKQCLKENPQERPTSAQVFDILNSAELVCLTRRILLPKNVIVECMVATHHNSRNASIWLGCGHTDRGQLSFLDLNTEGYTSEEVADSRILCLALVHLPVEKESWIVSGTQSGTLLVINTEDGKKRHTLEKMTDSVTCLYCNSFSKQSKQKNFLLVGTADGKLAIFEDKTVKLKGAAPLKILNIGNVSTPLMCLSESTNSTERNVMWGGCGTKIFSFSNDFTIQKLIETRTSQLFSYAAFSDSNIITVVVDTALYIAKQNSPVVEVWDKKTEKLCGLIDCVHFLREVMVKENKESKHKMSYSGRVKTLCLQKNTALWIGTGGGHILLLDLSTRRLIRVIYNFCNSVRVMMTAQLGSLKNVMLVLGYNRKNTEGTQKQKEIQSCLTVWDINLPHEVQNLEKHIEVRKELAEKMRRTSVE

Structure (SMILES) | LRRK2 pIC50
O=C(Nc1cnn(C2CCC2)c1)c1csc(-c2cc[nH]n2)n1 [Example 9-14, N-(1-cyclobutyl-1H-pyrazol-4-yl)-2-(1H-pyrazol-3-yl)-1,3-thiazole-4-carboxamide] | 7.41
O=C(Nc1cnn(C2CC2)c1)c1coc(-c2cn[nH]c2)n1 [Example 1-18, N-(1-cyclopropyl-1H-pyrazol-4-yl)-2-(1H-pyrazol-4-yl)-1,3-oxazole-4-carboxamide] | 6.75
O=C(Nc1cnn(CC2CCC2)c1)c1cccc(-c2cnn(Cc3ccccn3)c2)n1 [Example 9-8, N-[1-(cyclobutylmethyl)-1H-pyrazol-4-yl]-6-[1-(pyridin-2-ylmethyl)-1H-pyrazol-4-yl]pyridine-2-carboxamide] | 6.54
O=C(Nc1cnn(CCC2CCNCC2)c1)c1csc(-c2cn[nH]c2)n1 [Example 7-32, N-{1-[2-(piperidin-4-yl)ethyl]-1H-pyrazol-4-yl}-2-(1H-pyrazol-4-yl)-1,3-thiazole-4-carboxamide] | 7.38
COc1nn(CC2CCOCC2)cc1NC(=O)c1csc(-c2cn[nH]c2)n1 [Example 7-16, N-[3-methoxy-1-(tetrahydro-2H-pyran-4-ylmethyl)-1H-pyrazol-4-yl]-2-(1H-pyrazol-4-yl)-1,3-thiazole-4-carboxamide] | 7.25
O=C(Nc1cn(C2CCC2)nc1C1CC1)c1csc(-c2cn[nH]c2)n1 [Example 3-2, N-(1-cyclobutyl-3-cyclopropyl-1H-pyrazol-4-yl)-2-(1H-pyrazol-4-yl)-1,3-thiazole-4-carboxamide] | 8.35
O=C(Nc1cnn(C2CCC2)c1)c1ccn(-c2ncccn2)n1 [Example 4-11, N-(1-cyclobutyl-1H-pyrazol-4-yl)-1-pyrimidin-2-yl-1H-pyrazole-3-carboxamide] | 5.71
CC(C1CC1)n1ncc(NC(=O)c2csc(-c3cn[nH]c3)n2)c1C(F)F (single isomer, unassigned) [Example 3-4, (R)- or (S)—N-(1-(1-cyclopropylethyl)-5-(difluoromethyl)-1H-pyrazol-4-yl)-2-(1H-pyrazol-4-yl)thiazole-4-carboxamide] | 5.69
COCCn1cc(NC(=O)c2csc(-c3cn[nH]c3)n2)c(OC)n1 [Example 7-21, N-[3-methoxy-1-(2-methoxyethyl)-1H-pyrazol-4-yl]-2-(1H-pyrazol-4-yl)-1,3-thiazole-4-carboxamide] | 6.57
COc1nn(CC(F)(F)F)cc1NC(=O)c1csc(-c2cn[nH]c2)n1 [Example 1-2, N-(3-Methoxy-1-(2,2,2-trifluoroethyl)-1H-pyrazol-4-yl)-2-(1H-pyrazol-4-yl)thiazole-4-carboxamide] | 7.46
Cn1cc(-c2nc(C(=O)Nc3cn(C4CC4)nc3C3CC3)cs2)cn1 [Example 12-3, N-(1,3-dicyclopropyl-1H-pyrazol-4-yl)-2-(1-methyl-1H-pyrazol-4-yl)-1,3-thiazole-4-carboxamide] | 7.84
O=C(Nc1cnn(C2CCC2)c1)c1csc(-c2cccnc2)n1 [Example 9-39, N-(1-cyclobutyl-1H-pyrazol-4-yl)-2-(pyridin-3-yl)thiazole-4-carboxamide] | 7.06
Cc1nn(C(C)C2CC2)cc1NC(=O)c1csc(-c2cn[nH]c2)n1 (single isomer, unassigned) [Example 2-3, (R)- or (S)-N-{1-[1-cyclopropylethyl]-3-methyl-1H-pyrazol-4-yl}-2-(1H-pyrazol-4-yl)-1,3-thiazole-4-carboxamide] | 6.99
O=C(Nc1cnn(CC2CCC2)c1)c1cccc(-c2cnn3c2COCC3)n1 [Example 9-10, N-[1-(cyclobutylmethyl)-1H-pyrazol-4-yl]-6-(6,7-dihydro-4H-pyrazolo[5,1-c][1,4]oxazin-3-yl)pyridine-2-carboxamide] | 7.76
O=C(Nc1cnn(Cc2ccncc2)c1)c1csc(-c2cn[nH]c2)n1 [Example 7-24, 2-(1H-pyrazol-4-yl)-N-[1-(pyridin-4-ylmethyl)-1H-pyrazol-4-yl]-1,3-thiazole-4-carboxamide] | 7.30
Cn1cc(-c2nc(C(=O)Nc3cnn(CC4CCC4)c3)cs2)cn1 [Example 12-1, N-(1-(Cyclobutylmethyl)-1H-pyrazol-4-yl)-2-(1-methyl-1H-pyrazol-4-yl)thiazole-4-carboxamide] | 7.74
COc1nn(CC(F)F)cc1NC(=O)c1csc(-c2cn[nH]c2)n1 [Example 7-20, N-[1-(2,2-difluoroethyl)-3-methoxy-1H-pyrazol-4-yl]-2-(1H-pyrazol-4-yl)-1,3-thiazole-4-carboxamide] | 7.58
Cn1ccc(-c2cccc(C(=O)Nc3cnn(CC4CCC4)c3)n2)c1 [Example 9-32, N-[1-(cyclobutylmethyl)-1H-pyrazol-4-yl]-6-(1-methyl-1H-pyrrol-3-yl)pyridine-2-carboxamide] | 6.59
O=C(Nc1cnn(CC2CCC2)c1)c1cccc(-c2cccnc2)n1 [Example 9-34, N-[1-(cyclobutylmethyl)-1H-pyrazol-4-yl]-2,3′-bipyridine-6-carboxamide] | 6.90

Structure (SMILES) | LRRK2 pIC50
Cc1cc(-n2cc(NC(=O)c3csc(-c4cn[nH]c4)n3)cn2)cc(C)n1 [Example 8-4, N-[1-(2,6-dimethylpyridin-4-yl)-1H-pyrazol-4-yl]-2-(1H-pyrazol-4-yl)-1,3-thiazole-4-carboxamide] | 7.82
CC(C)Cn1cc(NC(=O)c2csc(-c3cn[nH]c3)n2)cn1 [Example 7-41, N-[1-(2-methylpropyl)-1H-pyrazol-4-yl]-2-(1H-pyrazol-4-yl)-1,3-thiazole-4-carboxamide] | 7.46
COc1nn(C2CC2)cc1NC(=O)c1csc(-c2cn[nH]c2)n1 [Example 1-37, N-(1-cyclopropyl-3-methoxy-1H-pyrazol-4-yl)-2-(1H-pyrazol-4-yl)-1,3-thiazole-4-carboxamide] | 7.51
Cn1ccc(-c2cccc(C(=O)Nc3cnn(CC4CCC4)c3)n2)n1 [Example 9-22, N-[1-(cyclobutylmethyl)-1H-pyrazol-4-yl]-6-(1-methyl-1H-pyrazol-3-yl)pyridine-2-carboxamide] | 6.53
Cn1cc(-c2nn(C)cc2NC(=O)c2csc(-c3cn[nH]c3)n2)cn1 [Example 1-31, N-(1,1′-dimethyl-1H,1′H-3,4′-bipyrazol-4-yl)-2-(1H-pyrazol-4-yl)-1,3-thiazole-4-carboxamide] | 7.95
CCn1cc(NC(=O)c2csc(-c3cn[nH]c3)n2)c(-c2nnc3n2CCCC3)n1 [Example 1-12, N-[1-ethyl-3-(5,6,7,8-tetrahydro[1,2,4]triazolo[4,3-a]pyridin-3-yl)-1H-pyrazol-4-yl]-2-(1H-pyrazol-4-yl)-1,3-thiazole-4-carboxamide] | 7.53
CC1(Cn2cc(NC(=O)c3csc(-c4cn[nH]c4)n3)cn2)CCC1 [Example 1-34, N-{1-[(1-methylcyclobu-tyl)methyl]-1H-pyrazol-4-yl}-2-(1H-pyrazol-4-yl)-1,3-thiazole-4-carboxamide] | 7.92
Cn1cc(-c2nc(C(=O)Nc3cnn(C4CCC4)c3)cs2)cn1 [Example 9-28, N-(1-cyclobutyl-1H-pyrazol-4-yl)-2-(1-methyl-1H-pyrazol-4-yl)-1,3-thiazole-4-carboxamide] | 7.85
CC(C)Nc1nc(C(=O)Nc2cnn(C3CCC3)c2)cs1 [Example 4-3, N-(1-cyclobutyl-1H-pyrazol-4-yl)-2-[(1-methylethyl)amino]-1,3-thiazole-4-carboxamide] | 6.19
O=C(Nc1cn(CC2CCOCC2)nc1C(F)F)c1csc(-c2cn[nH]c2)n1 [Example 7-7, N-[3-(difluoromethyl)-1-(tetrahydro-2H-pyran-4-ylmethyl)-1H-pyrazol-4-yl]-2-(1H-pyrazol-4-yl)-1,3-thiazole-4-carboxamide] | 7.72
CC(=O)Nc1nc(C(=O)Nc2cnn(C3CCC3)c2)cs1 [Example 4-12, 2-(acetylamino)-N-(1-cyclobutyl-1H-pyrazol-4-yl)-1,3-thiazole-4-carboxamide] | 6.18
CSCC1(Cn2cc(NC(=O)c3csc(-c4cn[nH]c4)n3)cn2)CCC1 [Example 1-27, N-[1-({1-[(methylsulfanyl)methyl]cyclobu-tyl}methyl)-1H-pyrazol-4-yl]-2-(1H-pyrazol-4-yl)-1,3-thiazole-4-carboxamide] | 7.77
N#CC1CCC(Cn2cc(NC(=O)c3csc(-c4cn[nH]c4)n3)cn2)CC1 (stereo not shown) [Example 7-37, N-{1-[(4-cyanocyclohexyl)methyl]-1H-pyrazol-4-yl}-2-(1H-pyrazol-4-yl)-1,3-thiazole-4-carboxamide] | 7.72
O=C(Nc1cnn(CCN2CCNCC2)c1)c1csc(-c2cn[nH]c2)n1 [Example 7-15, N-{1-[2-(piperazin-1-yl)ethyl]-1H-pyrazol-4-yl}-2-(1H-pyrazol-4-yl)-1,3-thiazole-4-carboxamide] | 6.36
COc1ccncc1-c1cccc(C(=O)Nc2cnn(CC3CCC3)c2)n1 [Example 9-30, N-[1-(cyclobutylmethyl)-1H-pyrazol-4-yl]-4′-methoxy-2,3′-bipyridine-6-carboxamide] | 6.76
CSc1nc(C(=O)Nc2cnn(C3CCC3)c2)cs1 [Example 4-5, N-(1-cyclobutyl-1H-pyrazol-4-yl)-2-(methylsulfanyl)-1,3-thiazole-4-carboxamide] | 5.82
O=C(Nc1cnn(CC2C3CCC2CNC3)c1)c1csc(-c2cn[nH]c2)n1 (stereo not shown) [Example 7-43, N-{1-[(3-azabicyclo[3.2.1]octan-8-yl)methyl]-1H-pyrazol-4-yl}-2-(1H-pyrazol-4-yl)-1,3-thiazole-4-carboxamide] | 6.87
O=C(Nc1cn(CC2CC2)nc1C(F)F)c1csc(-c2cn[nH]c2)n1 [Example 7-33, N-[1-(cyclopropylmethyl)-3-(difluoromethyl)-1H-pyrazol-4-yl]-2-(1H-pyrazol-4-yl)-1,3-thiazole-4-carboxamide] | 8.13
